Results published in patent US11026888B1, “Functional beverage compositions and methods of using and making same” (Nutrition Therapeutics, Inc., priority 2019, dated 2021).

Tests used:
[1] = vigorous mixing with water: miscibility / solubility; format: physicochemical; conditions: mixed vigorously
Source text: Over time, the non-polar compounds will aggregate together and fall out of aqueous suspension. […] Beverages manufactured with only polar and non-polar substances would behave and result in a composition having an immiscible and undesirable tactile quality; pomegranate seed oil mixed with water is likely to result in a fatty or oily layer on top of the water, or with CBD, the water surface peppered with crystalline flakes. In most cases, the non-polar components are likely to adhere to the sides of the container.
(§1) For broad-based consumer success, it is desirable that a functional beverage product consistent in flavor, quality, and mouthfeel be manufacturable using an easily replicated process, and be food-safe. Immiscible components can result in material floating on the surface of the beverage, wherein the immiscible materials can shelter can promote the growth of contaminating organisms or provide localized regions survivable from pasteurizing temperatures. Additionally, such immiscible components can become a choking hazard to the unaware consumer. Non-polar compounds mix well with other non-polar compounds.

[2] = dissolving of CBD within pomegranate seed oil; format: physicochemical; conditions: even at refrigeration temperatures
Source text: as §1

C=C(C)[C@@H]1CCC(C)=C[C@H]1c1c(O)cc(CCCCC)cc1O [CBD, cannabidiol]
behaviour in water after vigorous mixing [1]: non-dissolving solid
dissolving within pomegranate seed oil [2]: successful dissolving
